US20220304970A1, “LIPOSOMIAL EYE DROPS SOLUTION AND USES THEREOF FOR THE TREATMENT OF DRY EYE SYNDROME” (Dr. Rolf Lambert Pharma-Consulting GmbH, priority 2018, published 2022)

Assay: Stability to steam sterilization
Conditions: 121° C. at 1·10^5 Pa (1 atm) for 15 minutes

- stability to sterilization: not stable
Structure (SMILES): CCCCCCCCCCCCCCCC(=O)OC/C=C(C)/C=C/C=C(C)/C=C/C1=C(C)CCCC1(C)C [Vitamin A Palmitate, Retinyl Palmitate]
